Some test systems named below: A498 renal; HOP-62 NSCLC; K-562 leukemia; M14 melanoma; MCF7 breast; MDA-MB-231 breast; OVCAR-8 ovarian; RPMI-8226 leukemia; SF-268 CNS; SK-OV-3 ovarian.
Holding throughout (experiment): inhibition of tumour cell growth, NCI panel, 48 h

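Five compound concentrations were applied to cells in 96-well plates for 48 hours; endpoints were derived by simple linear interpolation of the resulting dose-response curve. GI50 marks 50% less growth. TGI marks complete inhibition of growth.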 Bounds are passed on as bounds.

Turning to `CN(C)c1cc2c(Nc3ccc4nc(Cc5ccccc5)[nH]c4c3)ncnc2cn1`, the GI50 was more than 13.9 µM in the test on A498 renal; more than 15.6 µM in the test with HOP-62 NSCLC; more than 19.8 µM with K-562 leukemia; more than 25 µM in the test with M14 melanoma; more than 15.3 µM in the test with MCF7 breast; more than 17.4 µM with MDA-MB-231 breast. Moreover, the GI50 in the test on OVCAR-8 ovarian is more than 17.4 µM; with RPMI-8226 leukemia it was 11.4 µM; with SF-268 CNS, more than 23.4 µM; with SK-OV-3 ovarian, 1.85 µM. The TGI in the test on A498 renal, in the test with HOP-62 NSCLC, in the test on K-562 leukemia, in the test with M14 melanoma, in the test on MCF7 breast and with MDA-MB-231 breast was more than 25 µM in each case. In addition, the TGI in the test on OVCAR-8 ovarian, in the test with RPMI-8226 leukemia, with SF-268 CNS and in the test with SK-OV-3 ovarian was more than 25 µM in each case.

On to `COc1cc(C2=Nc3c/c(=C\c4c(O)[nH]c5ccc(Cl)cc45)ccc3=N2)cc(OC)c1OC`, for which the GI50 with A498 renal is 29.4 µM; in the test with HOP-62 NSCLC, 1.95 µM; with K-562 leukemia, 4.21 µM; in the test with M14 melanoma it was 1.71 µM; with MCF7 breast, 1.43 µM; in the test on MDA-MB-231 breast, 1.5 µM. For the same molecule, the GI50 with OVCAR-8 ovarian is 1.95 µM; in the test with RPMI-8226 leukemia, 2.04 µM; with SF-268 CNS, 1.93 µM; with SK-OV-3 ovarian it was 16.2 µM. Moreover, the TGI in the test on A498 renal is more than 100 µM; in the test on HOP-62 NSCLC it was 4.09 µM; with K-562 leukemia it was 25.5 µM; with M14 melanoma, 3.83 µM; in the test on MCF7 breast, 3.56 µM; in the test with MDA-MB-231 breast, 6.26 µM. For the same molecule, the TGI amounted to 5.24 µM in the test with OVCAR-8 ovarian, 5.77 µM with RPMI-8226 leukemia, 3.78 µM in the test with SF-268 CNS and 32.5 µM in the test on SK-OV-3 ovarian.

In the case of `O=C(/C=C\c1cccc([N+](=O)[O-])c1)c1ccccc1`, the GI50 with A498 renal was 9.05 µM; in the test with HOP-62 NSCLC it was 19.5 µM; in the test on K-562 leukemia, 2.21 µM; in the test on M14 melanoma, 3.74 µM; in the test with MCF7 breast it was 1.81 µM; in the test with MDA-MB-231 breast it was 9.72 µM. For the same molecule, the GI50 in the test on OVCAR-8 ovarian is 3.66 µM; in the test with RPMI-8226 leukemia, 1.07 µM; in the test with SF-268 CNS, 5.46 µM; in the test with SK-OV-3 ovarian, 15 µM. The TGI was 25.1 µM in the test on A498 renal; 46.6 µM in the test on HOP-62 NSCLC; more than 100 µM with K-562 leukemia; 14.2 µM with M14 melanoma; 9.71 µM with MCF7 breast; 25.1 µM with MDA-MB-231 breast. Further, the TGI with OVCAR-8 ovarian was 17 µM; in the test on RPMI-8226 leukemia it was more than 100 µM; in the test with SF-268 CNS it was 20.5 µM; in the test with SK-OV-3 ovarian it was 30.4 µM.

Regarding `Cc1oncc1C(=O)Nc1ccc(C(F)(F)F)cc1`, the GI50 with A498 renal was 9.97 µM; with HOP-62 NSCLC, more than 100 µM; in the test on K-562 leukemia it was 12.1 µM; in the test on M14 melanoma, 68.2 µM; in the test on MCF7 breast, more than 100 µM; with MDA-MB-231 breast, 25.9 µM. Moreover, the GI50 is 17.6 µM in the test with OVCAR-8 ovarian, 17.5 µM with RPMI-8226 leukemia, 23 µM in the test on SF-268 CNS and more than 100 µM in the test with SK-OV-3 ovarian. Moreover, the TGI with A498 renal was 58.7 µM; in the test with HOP-62 NSCLC it was more than 100 µM; in the test on K-562 leukemia, more than 100 µM; in the test with M14 melanoma, more than 100 µM; in the test on MCF7 breast it was more than 100 µM; with MDA-MB-231 breast it was more than 100 µM. For the same molecule, the TGI with OVCAR-8 ovarian, in the test on RPMI-8226 leukemia, in the test with SF-268 CNS and in the test on SK-OV-3 ovarian was more than 100 µM throughout.

For the molecule `COC(=O)c1c2c(c[n+]([O-])c1C)C(=O)C(NCc1ccccc1)=CC2=O`, the GI50 in the test on A498 renal is 1.32 µM; in the test on HOP-62 NSCLC, 1.42 µM; in the test on K-562 leukemia, 0.529 µM; in the test on M14 melanoma, 0.297 µM; in the test on MCF7 breast, 0.224 µM; in the test on MDA-MB-231 breast, 0.333 µM. In addition, the GI50 is 0.311 µM in the test with OVCAR-8 ovarian, 0.996 µM in the test on RPMI-8226 leukemia, 0.998 µM in the test on SF-268 CNS and 1.98 µM in the test with SK-OV-3 ovarian. For the same molecule, the TGI with A498 renal amounted to 2.65 µM; with HOP-62 NSCLC it was 2.94 µM; in the test on M14 melanoma, 1.12 µM; with MCF7 breast, 0.726 µM; in the test with MDA-MB-231 breast it was 2.27 µM; in the test with OVCAR-8 ovarian, 1.16 µM. Moreover, the TGI in the test with RPMI-8226 leukemia came to 3.79 µM; in the test with SF-268 CNS, 3.94 µM; with SK-OV-3 ovarian, 4.79 µM.

Turning to `NC(=O)c1cccc(N)c1`, the GI50 in the test with A498 renal, in the test with HOP-62 NSCLC, with K-562 leukemia, in the test with M14 melanoma, in the test on MCF7 breast and with MDA-MB-231 breast was more than 100 µM throughout. Also, the GI50 with OVCAR-8 ovarian, in the test with RPMI-8226 leukemia, with SF-268 CNS and with SK-OV-3 ovarian was more than 100 µM throughout. In addition, the TGI in the test with A498 renal, with HOP-62 NSCLC, in the test on K-562 leukemia, in the test with M14 melanoma, with MCF7 breast and in the test with MDA-MB-231 breast was more than 100 µM each time. Also, the TGI in the test on OVCAR-8 ovarian, in the test with RPMI-8226 leukemia, with SF-268 CNS and in the test on SK-OV-3 ovarian was more than 100 µM each time.

`COc1cc(-c2nn(C)nc2-c2cc3ccccc3s2)cc(OC)c1OC`: the GI50 in the test on A498 renal is 0.0413 µM; with HOP-62 NSCLC, 0.553 µM; with K-562 leukemia, 0.0428 µM; in the test with M14 melanoma it was 0.0769 µM; with MCF7 breast, 0.0403 µM; with MDA-MB-231 breast it was 1.6 µM. Also, the GI50 in the test with OVCAR-8 ovarian was 0.352 µM; in the test with RPMI-8226 leukemia, 0.362 µM; with SF-268 CNS it was 0.638 µM; in the test on SK-OV-3 ovarian, 0.311 µM. Moreover, the TGI in the test with A498 renal was 7.63 µM; in the test on HOP-62 NSCLC it was more than 100 µM; in the test on K-562 leukemia it was more than 100 µM; with M14 melanoma it was more than 100 µM; in the test with MCF7 breast, more than 100 µM; with MDA-MB-231 breast, more than 100 µM. Further, the TGI with OVCAR-8 ovarian, in the test on RPMI-8226 leukemia, in the test with SF-268 CNS and with SK-OV-3 ovarian was more than 100 µM each time.

The values above are taken from PubChem BioAssay (NCI).
